Inhibition data for 67 molecules are collected here from US20110172217A1, “RING-FUSED MORPHOLINE DERIVATIVE HAVING PI3K-INHIBITING ACTIVITY” (Shionogi & Co., Ltd., priority 2008, published 2011).

The assay deals with PI-3 kinase γ (Homo sapiens, UniProt P48736). Kind of assay: PI3Kγ inhibitory activity, PI3-kinase HTRF assay (inhibition ratio). As to conditions: 0.5 h, compound at 50 μmol/L. The format is biochemical. The procedure: For each compound synthesized in the above Examples, PI3Kγ inhibitory activity was measured.
PI-3 kinase γ, sequence (P48736 whole entry): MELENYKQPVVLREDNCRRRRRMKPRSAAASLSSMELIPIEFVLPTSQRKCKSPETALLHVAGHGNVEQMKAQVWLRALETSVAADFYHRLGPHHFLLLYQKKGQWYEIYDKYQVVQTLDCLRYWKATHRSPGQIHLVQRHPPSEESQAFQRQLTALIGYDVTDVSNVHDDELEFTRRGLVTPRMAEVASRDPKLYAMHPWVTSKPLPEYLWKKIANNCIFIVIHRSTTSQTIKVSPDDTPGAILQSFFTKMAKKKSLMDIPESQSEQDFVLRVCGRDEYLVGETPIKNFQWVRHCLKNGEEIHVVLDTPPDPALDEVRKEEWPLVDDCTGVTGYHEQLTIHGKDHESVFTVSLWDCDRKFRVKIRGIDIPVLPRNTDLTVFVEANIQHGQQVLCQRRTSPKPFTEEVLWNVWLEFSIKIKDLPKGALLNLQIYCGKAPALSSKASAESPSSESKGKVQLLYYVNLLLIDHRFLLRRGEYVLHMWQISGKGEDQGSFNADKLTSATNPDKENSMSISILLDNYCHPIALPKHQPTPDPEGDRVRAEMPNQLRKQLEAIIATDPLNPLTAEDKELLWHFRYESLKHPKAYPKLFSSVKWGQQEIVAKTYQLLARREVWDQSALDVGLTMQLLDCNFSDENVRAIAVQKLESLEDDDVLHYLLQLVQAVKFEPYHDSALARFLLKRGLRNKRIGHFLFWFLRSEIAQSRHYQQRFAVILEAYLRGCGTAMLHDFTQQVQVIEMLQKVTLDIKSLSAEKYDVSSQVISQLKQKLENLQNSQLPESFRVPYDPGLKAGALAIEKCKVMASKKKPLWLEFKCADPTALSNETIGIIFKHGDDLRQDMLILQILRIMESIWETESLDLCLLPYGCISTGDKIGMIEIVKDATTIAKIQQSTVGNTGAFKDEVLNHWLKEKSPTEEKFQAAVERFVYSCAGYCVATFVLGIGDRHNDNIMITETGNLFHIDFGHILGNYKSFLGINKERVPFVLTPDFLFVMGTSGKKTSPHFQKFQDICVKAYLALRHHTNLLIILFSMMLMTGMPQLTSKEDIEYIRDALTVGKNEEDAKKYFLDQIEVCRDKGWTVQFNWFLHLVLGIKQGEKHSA
The PI3Kγ inhibitory activity of a compound was evaluated using PI3-kinase HTRF™ assay (Millipore) according to the following procedure:
To each well of a testing plate, 5 μL of a compound solution containing 10% DMSO (200 μmol/L or 40 μmol/L as the concentration of the compound), 5 μL of a substrate solution (40 μmol/L phosphatidylinositol (4,5)-bisphosphate, 20 mmol/L MgCl2, 10 mmol/L DTT), and 5 μL of a enzyme solution (80 μg/mL PI-3 kinase γ, 10 mmol/L MgCl2, 5 mmol/L DTT) were added, and then allowed to stand for 10 minutes.
Then, 5 μL of a reaction solution (40 μmol/L ATP, 10 mmol/L MgCl2, 5 mmol/L DTT) was added thereto. After reacting for 30 minutes at room temperature, 5 μL of a solution containing EDTA and biotinylated phosphatidylinositol (3,4,5)-triphosphate were added to quench the reaction.
5 μL of a detection reagent containing a europium-labeled anti-GST antibody, the GST-tagged PH domain, and allophycocyanin-labeled streptavidin was added thereto. After 18 hours, HTRF (excitation wavelength: 330 nm, measured wavelengths: 620 nm and 665 nm) was measured.
HTRF ratio was defined as the value obtained by dividing the amount of fluorescence obtained at the measured wavelength 665 nm by the amount of fluorescence obtained at 620 nm. The HTRF ratio in the absence of a compound was defined as 100% activity and the HTRF ratio in the absence of PI-3 kinase γ was defined as 0% activity to calculate an inhibition ratio which was defined as the PI3Kγ inhibitory activity of a compound at 50 μmol/L or 10 μmol/L.

As a reminder, the inhibition is the drop in the measured response relative to a control, in per cent.

As to `O=C(Nc1ccccc1)N1CCOc2cccnc21` [Compound I-2], the inhibition at 50 µM amounted to 89%. Next, `C=CCC1(C)SC(N2CCOc3cccnc32)=NC1=O` (stereo not shown) [Compound I-3]: 80%; `CC1(Cc2ccccc2)SC(N2CCOc3cccnc32)=NC1=O` (stereo not shown) [Compound I-4]: 84%; `S=C(Nc1cccnc1)N1CCOc2cccnc21` [Compound I-5]: 90%.

For the molecule `CC1(C/C=C/c2ccccc2)SC(N2CCOc3cccnc32)=NC1=O` (stereo not shown) [Compound I-6], the inhibition at 50 µM was 81%. As for `C#CCC1(C)SC(N2CCOc3cccnc32)=NC1=O` (stereo not shown) [Compound I-7], the inhibition at 50 µM came to 75%. The result for `O=C(NC1CCCCC1)N1CCOc2cccnc21` [Compound I-17] reads 88%; that for `CC(NC(=O)c1ccc2c(n1)N(C(=O)Nc1ccccc1)CCO2)C(=O)O` (stereo not shown) [Compound I-38], 76%. Turning to `O=C(O)c1ccc(NC(=O)c2ccc3c(n2)N(C(=O)Nc2ccccc2)CCO3)cc1` [Compound I-40], the inhibition at 50 µM came to 80%. Regarding `O=C(O)c1ccc(-c2ccc3c(n2)N(C(=O)Nc2ccccc2)CCO3)cc1` [Compound I-51], the inhibition at 50 µM was found to be 93%. For `O=C(Nc1ccccc1)N1CCOc2ccc(/C=C/c3ccccc3)nc21` [Compound I-60], the inhibition at 50 µM was 74%.

Turning to `NC(=O)c1ccc(-c2ccc3c(n2)N(C(=O)Nc2ccccc2)CCO3)cc1` [Compound I-69], the inhibition at 50 µM came to 73%. Next, `CNC(=O)c1ccc(-c2ccc3c(n2)N(C(=O)Nc2ccccc2)CCO3)cc1` [Compound I-70]: 71%; `CN1CCOc2cc(-c3ccc4c(n3)N(C(=O)Nc3ccccc3)CCO4)ccc21` [Compound I-77]: 82%; `O=C(Nc1ccccc1)N1CCOc2ccc(-c3nccs3)nc21` [Compound I-83]: 92%. Next, `O=C(Nc1ccccc1)N1CCOc2ccc(-c3ncco3)nc21` [Compound I-84]: 72%. Next, `O=C(Nc1ccccc1)N1CCOc2ccc(C3CCCCC3)nc21` [Compound I-86]: 82%. `O=C(Nc1ccccc1)N1CCOc2ccc(Cc3ccccc3)nc21` [Compound I-87]: the inhibition at 50 µM worked out at 75%. Take `CC(C)CCc1ccc2c(n1)N(C(=O)Nc1ccccc1)CCO2` [Compound I-88]: the inhibition at 50 µM was 91%. Next, `CCOC(=O)CCCc1ccc2c(n1)N(C(=O)Nc1ccccc1)CCO2` [Compound I-89]: at least 95%; `CCCc1ccc2c(n1)N(C(=O)Nc1ccccc1)CCO2` [Compound I-90]: 72%. In the case of `CCOC(=O)CCc1ccc2c(n1)N(C(=O)Nc1ccccc1)CCO2` [Compound I-92], the inhibition at 50 µM is at least 95%. Next, `O=C(O)CCc1ccc2c(n1)N(C(=O)Nc1ccccc1)CCO2` [Compound I-94]: at least 95%; `O=C(O)CCCc1ccc2c(n1)N(C(=O)Nc1ccccc1)CCO2` [Compound I-95]: at least 95%.

With `O=C(Nc1ccccc1)N1CCOc2ccc(-c3ccc(CO)cc3)nc21` [Compound I-97], the inhibition at 50 µM stood at 89%. The result for `COc1ccc(-c2ccc3c(n2)N(C(=O)Nc2ccccc2)CCO3)cc1` [Compound I-98] reads 73%; that for `COc1ccc(-c2ccc3c(n2)N(C(=O)Nc2ccccc2)CCO3)cc1OC` [Compound I-99], at least 95%.

In the case of `Cc1noc(C)c1-c1ccc2c(n1)N(C(=O)Nc1ccccc1)CCO2` [Compound I-100], the inhibition at 50 µM was at least 95%. Next, `O=C(Nc1ccccc1)N1CCOc2ccc(-c3ccoc3)nc21` [Compound I-101]: at least 95%; `O=C(Nc1ccccc1)N1CCOc2ccc(-c3cccnc3)nc21` [Compound I-102]: 94%; `COC(=O)c1cccc(-c2ccc3c(n2)N(C(=O)Nc2ccccc2)CCO3)c1` [Compound I-103]: 94%. For the molecule `O=C(O)c1cccc(-c2ccc3c(n2)N(C(=O)Nc2ccccc2)CCO3)c1` [Compound I-104], the inhibition at 50 µM is at least 95%.

In the case of `O=C(Nc1ccccc1)N1CCOc2ccc(-c3cncnc3)nc21` [Compound I-106], the inhibition at 50 µM is at least 95%. `O=C(Nc1ccccc1)N1CCOc2ccc(-c3ccncc3)nc21` [Compound I-107]: the inhibition at 50 µM is at least 95%.

Turning to `Nc1ccc2c(n1)N(C(=O)Nc1ccccc1)CCO2` [Compound I-108], the inhibition at 50 µM came out at 88%. Next, `O=C(O)c1ccc(-c2cnc3c(c2)OCCN3C(=O)Nc2ccccc2)cc1` [Compound I-111]: 87%; `NCCOc1ccc(C(=O)O)cc1NC(=O)c1ccc2c(n1)N(C(=O)Nc1ccccc1)CCO2` [Compound I-118]: at least 95%.

In the case of `CCOC(=O)CC(=O)Nc1ccc2c(n1)N(C(=O)Nc1ccccc1)CCO2` [Compound I-122], the inhibition at 50 µM was 87%. The result for `O=C(O)CC(=O)Nc1ccc2c(n1)N(C(=O)Nc1ccccc1)CCO2` [Compound I-123] reads at least 95%. The result for `O=C(O)c1cccc(C(=O)Nc2ccc3c(n2)N(C(=O)Nc2ccccc2)CCO3)c1` [Compound I-124] reads 76%; that for `O=C(O)c1ccc(C(=O)Nc2ccc3c(n2)N(C(=O)Nc2ccccc2)CCO3)cc1` [Compound I-125], at least 95%. As for `O=C(O)c1cccc(NC(=O)c2ccc3c(n2)N(C(=O)Nc2ccccc2)CCO3)c1` [Compound I-126], the inhibition at 50 µM is at least 95%. The result for `NCCOc1ccccc1NC(=O)c1ccc2c(n1)N(C(=O)Nc1ccccc1)CCO2` [Compound I-130] reads at least 95%; that for `O=C(Nc1ccccc1)N1CCOc2cc(NCc3ccccc3)cnc21` [Compound I-131], at least 95%. Next, `O=C(Nc1ccccc1)N1CCOc2cc(Nc3ccccc3)cnc21` [Compound I-132]: 83%; `O=C(O)c1ccccc1Nc1cnc2c(c1)OCCN2C(=O)Nc1ccccc1` [Compound I-137]: at least 95%. For `COC(=O)c1ccccc1Nc1ccc2c(n1)N(C(=O)Nc1ccccc1)CCO2` [Compound I-141], the inhibition at 50 µM is 82%. The result for `CC(C)(C)OC(=O)c1cccc(Nc2ccc3c(n2)N(C(=O)Nc2ccccc2)CCO3)c1` [Compound I-142] reads 78%; that for `CC(C)(C)OC(=O)c1ccc(Nc2ccc3c(n2)N(C(=O)Nc2ccccc2)CCO3)cc1` [Compound I-143], at least 95%; that for `O=C(Nc1ccccc1)N1CCOc2ccc(Nc3ccccc3)nc21` [Compound I-144], 81%. The result for `O=C(O)c1cccc(Nc2ccc3c(n2)N(C(=O)Nc2ccccc2)CCO3)c1` [Compound I-147] reads at least 95%; that for `Nc1cnc2c(c1)OCCN2C(=O)Nc1ccccc1` [Compound I-148], 94%.

Regarding `O=C(O)Cc1cccc(-c2ccc3c(n2)N(C(=O)Nc2ccccc2)CCO3)c1` [Compound I-152], the inhibition at 50 µM is at least 95%. With `CC(C)(C)OC(=O)CC(=O)Nc1cnc2c(c1)OCCN2C(=O)Nc1ccccc1` [Compound I-160], the inhibition at 50 µM came out at 75%. The result for `O=C(O)CC(=O)Nc1cnc2c(c1)OCCN2C(=O)Nc1ccccc1` [Compound I-161] reads 88%; that for `CC(=O)Nc1cnc2c(c1)OCCN2C(=O)Nc1ccccc1` [Compound I-173], at least 95%. For the molecule `CC(=O)Nc1ccc2c(n1)N(C(=O)Nc1ccccc1)CCO2` [Compound I-174], the inhibition at 50 µM is 79%.

Turning to `COCOc1ccc(C(=O)OC)cc1Nc1ccc2c(n1)N(C(=O)Nc1ccccc1)CCO2` [Compound I-179], the inhibition at 50 µM turned out to be 79%.

Take `O=C(Nc1ccccc1)N1CCOc2ccc(Nc3ccccn3)nc21` [Compound I-180]: the inhibition at 50 µM was at least 95%. Next, `O=C(Nc1ccccc1)N1CCOc2ccc(Nc3cccnc3)nc21` [Compound I-181]: at least 95%. The result for `O=C(Nc1ccccc1)N1CCOc2ccc(Nc3ccncc3)nc21` [Compound I-182] reads at least 95%. The result for `O=C(O)c1ccc(Nc2ccc3c(n2)N(C(=O)Nc2ccccc2)CCO3)nc1` [Compound I-183] reads 86%; that for `O=C(O)c1cncc(-c2ccc3c(n2)N(C(=O)Nc2ccccc2)CCO3)c1` [Compound I-184], at least 95%.

Turning to `Nc1ccc(-c2ccc3c(n2)N(C(=O)Nc2ccccc2)CCO3)cn1` [Compound I-185], the inhibition at 50 µM worked out at 76%. The result for `O=C(Nc1ccccc1)N1CCOc2ccc(-c3ccn[nH]3)nc21` [Compound I-187] reads at least 95%. On to `Cc1n[nH]cc1-c1ccc2c(n1)N(C(=O)Nc1ccccc1)CCO2` [Compound I-188], for which the inhibition at 50 µM was at least 95%. Next, `Cc1n[nH]c(C)c1-c1ccc2c(n1)N(C(=O)Nc1ccccc1)CCO2` [Compound I-189]: 83%.
